Measured values as given in patent publication US12115176B2, “Methods and compositions relating to ClbP inhibition” (PRESIDENT AND FELLOWS OF HARVARD COLLEGE, priority 2021, dated 2024).

Tests used:
[1] = system: Enterococcus faecalis; assay: Bacterial MIC assay (broth dilution); type: cell-based; conditions: 15 h, read-out: MICs by compound
[2] = system: purified plasmid DNA incubated with pks+ E. coli; assay: Plasmid DNA crosslinking, denaturing gel electrophoresis
Protocol: In addition to blocking the metabolic indicators of colibactin biosynthesis, it was also assessed whether 3 could inhibit the genotoxic effects of colibactin on human cells at physiologically accessible concentrations. A previously described infection assay with HeLa cells and pks+E. coli which was modified to include a 1-hour preincubation of the inhibitor with the E. coli as well as inclusion of the inhibitor in the infection medium was used. […] Treatment with 3 was able to completely block this effect at concentrations as low as 5 nM (FIG. 4). It was also confirmed that 3 is not cytotoxic to human cell lines at concentrations up to 10 μM. […] In order to directly assess the impacts of 3 on colibactin's DNA crosslinking activity, purified plasmid DNA was incubated with pks^+ E. coli, then subjected to gel electrophoresis under denaturing conditions.

[3] = system: a variety of bacterial strains from common gut phyla, including E. coli; assay: Turbidity MIC assay, all strains together; type: cell-based; conditions: Escherichia coli; all strains tested; upper limit tested 200 μM; read-out: MICs in liquid culture
Description: Compound 3 is an inhibitor of colibactin-associated genotoxicity. Since colibactin is produced in the context of the gut microbiota, it is essential to understand how 3 can affect other members of this community and whether it remains an effective inhibitor under these conditions. […] A turbidity assay was used to determine minimum inhibitory concentrations (MICs) in liquid culture of 1-4 against a variety of bacterial strains from common gut phyla, including E. coli (Table 3).
MICs of compounds against different bacterial species were determined using a modified version of a broth microdilution protocol which has been previously reported.^1 Briefly, cultures of each species indicated were inoculated from frozen stocks in deoxygenated Wilkins-Chalgren Anaerobic Medium (WCAM) inside of an anerobic chamber with an 92.5% N2/5% CO2/2.5% H2 atmosphere. Cultures were grown for 24-48 hours in a 37° C. incubator at which point an OD600-measurement was taken for each culture and was accordingly diluted in fresh WCAM to an equivalent of OD600=0.01. Diluted cultures were then distributed into the wells of a clear, flat-bottom 384-well plate and the compound of interest was added to a final DMSO concentration of 2% (or DMSO only for positive controls). […] mineral oil (Millipore Sigma) was deposited on top of the cultures and plates were covered with a clear adhesive plate seal. Plates were incubated at 37° C. for 16 hours, at which point the OD600 of all wells was recorded on a SpectraMax M2 plate reader (Molecular Devices).

## CC1(C)OB([C@@H](CC(N)=O)NC(=O)CCCc2ccccc2)OC1(C)C [Compound 3]
[1]
  MIC: > 200 µM
[2]
  DNA crosslinking activity: can suppress DNA crosslinking activity
[3]
  MIC: > 200 µM
